Measured values published in ChEMBL document CHEMBL3885861, “Open TG-GATES”.

Organism: Rattus norvegicus
Test: Open TG-GATES - Regimen: Single
Format: toxicity, organism-based, Sprague-Dawley
Parameters: regimen Single, gender Male, age 6 weeks
Settings: in vivo, po, route gavage; for APTT / Bas / Eos / Fbg / Hb / Ht / Lym / MCH / MCHC / MCV / Mono / Neu / PT / Plat / RBC / Ret / WBC: tissue Blood; for KIDNEY_L / KIDNEY_R / KIDNEY_TOTAL: tissue Kidney; for LIVER: tissue Liver; for A/G / ALP / ALT / AST / BUN / CRE / Ca / Cl / DBIL / GLC / IP / K / LDH / Na / PL / RALB / TBIL / TC / TG / TP / gamma-GTP: tissue Plasma
[1] = 100 mg/kg, 3 h, dose level Middle
[2] = 100 mg/kg, 6 h, dose level Middle
[3] = 100 mg/kg, 9 h, dose level Middle
[4] = 100 mg/kg, 24 h, dose level Middle
[5] = 300 mg/kg, 3 h, dose level High
[6] = 300 mg/kg, 6 h, dose level High
[7] = 300 mg/kg, 9 h, dose level High
[8] = 300 mg/kg, 24 h, dose level High

## ClC(Cl)(Cl)Cl [CARBON TETRACHLORIDE]
[1]
  TERMINAL_BW: 207.5 g
  APTT: 20.3 s
  Bas: 0%
  Eos: 1%
  Fbg: 222.4 mg/dL
  Hb: 12.7 g/dL
  Ht: 36.6%
  Lym: 76.4%
  MCH: 21.8 pg
  MCHC: 34.8%
  MCV: 62.7 fL
  Mono: 2.8%
  Neu: 19.8%
  PT: 12.6 s
  Plat: 129.7 x10_4/uL
  RBC: 583.2 x10_4/ul
  Ret: 8.7%
  WBC: 76.6 x10_2/uL
  KIDNEY_L: 0.9 g
  KIDNEY_R: 0.9 g
  KIDNEY_TOTAL: 1.8 g
  LIVER: 9.4 g
  A/G: 1.7
  ALP: 1077.4 IU/L
  ALT: 36.2 IU/L
  AST: 70 IU/L
  BUN: 10.2 mg/dL
  CRE: 0.4 mg/dL
  Ca: 10.8 mg/dL
  Cl: 104.6 meq/L
  DBIL: 0.1 mg/dL
  GLC: 186.4 mg/dL
  IP: 9.4 mg/dL
  K: 3.9 meq/L
  LDH: 156 IU/L
  Na: 140.2 meq/L
  PL: 148.6 mg/dL
  RALB: 3.4 g/dL
  TBIL: 0.2 mg/dL
  TC: 73.6 mg/dL
  TG: 103.8 mg/dL
  TP: 5.4 g/dL
  gamma-GTP: 1.2 IU/L
[2]
  TERMINAL_BW: 204.2 g
  APTT: 18 s
  Bas: 0%
  Eos: 1%
  Fbg: 224.8 mg/dL
  Hb: 13.3 g/dL
  Ht: 38.1%
  Lym: 71.2%
  MCH: 21.8 pg
  MCHC: 35%
  MCV: 62.4 fL
  Mono: 3%
  Neu: 24.8%
  PT: 12.7 s
  Plat: 134.8 x10_4/uL
  RBC: 611 x10_4/ul
  Ret: 8.8%
  WBC: 76 x10_2/uL
  KIDNEY_L: 0.9 g
  KIDNEY_R: 0.9 g
  KIDNEY_TOTAL: 1.8 g
  LIVER: 9 g
  A/G: 1.8
  ALP: 913.2 IU/L
  ALT: 35 IU/L
  AST: 65.6 IU/L
  BUN: 11.4 mg/dL
  CRE: 0.4 mg/dL
  Ca: 10.5 mg/dL
  Cl: 104 meq/L
  DBIL: 0.1 mg/dL
  GLC: 190.2 mg/dL
  IP: 10.2 mg/dL
  K: 3.9 meq/L
  LDH: 164.6 IU/L
  Na: 140.2 meq/L
  PL: 154.4 mg/dL
  RALB: 3.5 g/dL
  TBIL: 0.2 mg/dL
  TC: 78.8 mg/dL
  TG: 67.2 mg/dL
  TP: 5.4 g/dL
  gamma-GTP: 1.4 IU/L
[3]
  TERMINAL_BW: 205.2 g
  APTT: 18.5 s
  Bas: 0%
  Eos: 0.8%
  Fbg: 229.8 mg/dL
  Hb: 12.9 g/dL
  Ht: 37%
  Lym: 74.2%
  MCH: 21.2 pg
  MCHC: 34.8%
  MCV: 60.8 fL
  Mono: 3%
  Neu: 21.8%
  PT: 12.5 s
  Plat: 125.2 x10_4/uL
  RBC: 610.4 x10_4/ul
  Ret: 8%
  WBC: 72.7 x10_2/uL
  KIDNEY_L: 0.9 g
  KIDNEY_R: 0.9 g
  KIDNEY_TOTAL: 1.8 g
  LIVER: 8.4 g
  A/G: 1.6
  ALP: 848.2 IU/L
  ALT: 28.2 IU/L
  AST: 62.4 IU/L
  BUN: 11.4 mg/dL
  CRE: 0.4 mg/dL
  Ca: 10.5 mg/dL
  Cl: 103.6 meq/L
  DBIL: 0.1 mg/dL
  GLC: 196 mg/dL
  IP: 10.3 mg/dL
  K: 3.7 meq/L
  LDH: 173.2 IU/L
  Na: 140.4 meq/L
  PL: 141.2 mg/dL
  RALB: 3.3 g/dL
  TBIL: 0.2 mg/dL
  TC: 66.6 mg/dL
  TG: 65 mg/dL
  TP: 5.5 g/dL
  gamma-GTP: 0.8 IU/L
[4]
  TERMINAL_BW: 210.9 g
  APTT: 18.9 s
  Bas: 0%
  Eos: 1%
  Fbg: 229.8 mg/dL
  Hb: 13.6 g/dL
  Ht: 39.4%
  Lym: 79.4%
  MCH: 21.8 pg
  MCHC: 34.5%
  MCV: 63 fL
  Mono: 3.4%
  Neu: 15.8%
  PT: 12.6 s
  Plat: 126.7 x10_4/uL
  RBC: 625.2 x10_4/ul
  Ret: 8.6%
  WBC: 98.1 x10_2/uL
  KIDNEY_L: 0.9 g
  KIDNEY_R: 0.9 g
  KIDNEY_TOTAL: 1.8 g
  LIVER: 10.1 g
  A/G: 1.7
  ALP: 987 IU/L
  ALT: 38.2 IU/L
  AST: 70.2 IU/L
  BUN: 16.8 mg/dL
  CRE: 0.4 mg/dL
  Ca: 10.8 mg/dL
  Cl: 104.4 meq/L
  DBIL: 0.082 mg/dL
  GLC: 189.4 mg/dL
  IP: 8.1 mg/dL
  K: 4.1 meq/L
  LDH: 280 IU/L
  Na: 140.4 meq/L
  PL: 148.2 mg/dL
  RALB: 3.5 g/dL
  TBIL: 0.1 mg/dL
  TC: 70.4 mg/dL
  TG: 78 mg/dL
  TP: 5.6 g/dL
  gamma-GTP: 1 IU/L
[5]
  TERMINAL_BW: 206.7 g
  APTT: 18.3 s
  Bas: 0%
  Eos: 1%
  Fbg: 242 mg/dL
  Hb: 13 g/dL
  Ht: 37.2%
  Lym: 74.4%
  MCH: 21.8 pg
  MCHC: 34.9%
  MCV: 62.4 fL
  Mono: 2.2%
  Neu: 21.8%
  PT: 12.5 s
  Plat: 125.5 x10_4/uL
  RBC: 595.8 x10_4/ul
  Ret: 8.9%
  WBC: 76.7 x10_2/uL
  KIDNEY_L: 0.9 g
  KIDNEY_R: 0.9 g
  KIDNEY_TOTAL: 1.8 g
  LIVER: 9.4 g
  A/G: 1.6
  ALP: 909.4 IU/L
  ALT: 39.4 IU/L
  AST: 67.8 IU/L
  BUN: 12.2 mg/dL
  CRE: 0.4 mg/dL
  Ca: 10.5 mg/dL
  Cl: 104 meq/L
  DBIL: 0.1 mg/dL
  GLC: 187.4 mg/dL
  IP: 10.1 mg/dL
  K: 3.8 meq/L
  LDH: 201.4 IU/L
  Na: 140 meq/L
  PL: 156.4 mg/dL
  RALB: 3.3 g/dL
  TBIL: 0.2 mg/dL
  TC: 79.2 mg/dL
  TG: 90.8 mg/dL
  TP: 5.4 g/dL
  gamma-GTP: 1.2 IU/L
[6]
  TERMINAL_BW: 208.2 g
  APTT: 18.5 s
  Bas: 0%
  Eos: 0.8%
  Fbg: 231.4 mg/dL
  Hb: 13.1 g/dL
  Ht: 37.9%
  Lym: 77.2%
  MCH: 21.3 pg
  MCHC: 34.6%
  MCV: 61.7 fL
  Mono: 3%
  Neu: 18.4%
  PT: 13 s
  Plat: 125.2 x10_4/uL
  RBC: 614.2 x10_4/ul
  Ret: 8.6%
  WBC: 96.7 x10_2/uL
  KIDNEY_L: 0.9 g
  KIDNEY_R: 0.9 g
  KIDNEY_TOTAL: 1.8 g
  LIVER: 9.1 g
  A/G: 1.7
  ALP: 830.8 IU/L
  ALT: 29.8 IU/L
  AST: 65.2 IU/L
  BUN: 10.4 mg/dL
  CRE: 0.4 mg/dL
  Ca: 10.5 mg/dL
  Cl: 103.2 meq/L
  DBIL: 0.086 mg/dL
  GLC: 201.8 mg/dL
  IP: 10.1 mg/dL
  K: 4 meq/L
  LDH: 205.8 IU/L
  Na: 139.6 meq/L
  PL: 150.4 mg/dL
  RALB: 3.4 g/dL
  TBIL: 0.1 mg/dL
  TC: 73 mg/dL
  TG: 68.2 mg/dL
  TP: 5.5 g/dL
  gamma-GTP: 1.2 IU/L
[7]
  TERMINAL_BW: 203.7 g
  APTT: 19.1 s
  Bas: 0%
  Eos: 1%
  Fbg: 232.6 mg/dL
  Hb: 13.3 g/dL
  Ht: 37.9%
  Lym: 80.4%
  MCH: 21.5 pg
  MCHC: 35%
  MCV: 61.7 fL
  Mono: 2.8%
  Neu: 16%
  PT: 12.5 s
  Plat: 137.8 x10_4/uL
  RBC: 615.2 x10_4/ul
  Ret: 8.7%
  WBC: 72.4 x10_2/uL
  KIDNEY_L: 0.9 g
  KIDNEY_R: 0.9 g
  KIDNEY_TOTAL: 1.8 g
  LIVER: 8.8 g
  A/G: 1.5
  ALP: 987.6 IU/L
  ALT: 28.4 IU/L
  AST: 63.2 IU/L
  BUN: 9.4 mg/dL
  CRE: 0.4 mg/dL
  Ca: 10.5 mg/dL
  Cl: 103 meq/L
  DBIL: 0.1 mg/dL
  GLC: 193 mg/dL
  IP: 10.4 mg/dL
  K: 3.9 meq/L
  LDH: 200.2 IU/L
  Na: 139.4 meq/L
  PL: 150.8 mg/dL
  RALB: 3.3 g/dL
  TBIL: 0.2 mg/dL
  TC: 71 mg/dL
  TG: 80.2 mg/dL
  TP: 5.5 g/dL
  gamma-GTP: 1.2 IU/L
[8]
  TERMINAL_BW: 212.9 g
  APTT: 19.3 s
  Bas: 0%
  Eos: 1%
  Fbg: 225.4 mg/dL
  Hb: 13.5 g/dL
  Ht: 38.6%
  Lym: 79%
  MCH: 22.4 pg
  MCHC: 34.8%
  MCV: 64.4 fL
  Mono: 3.8%
  Neu: 15.6%
  PT: 12.6 s
  Plat: 131.5 x10_4/uL
  RBC: 599.6 x10_4/ul
  Ret: 7.8%
  WBC: 110.3 x10_2/uL
  KIDNEY_L: 1 g
  KIDNEY_R: 1 g
  KIDNEY_TOTAL: 2 g
  LIVER: 10.2 g
  A/G: 1.6
  ALP: 1310.2 IU/L
  ALT: 42.2 IU/L
  AST: 75 IU/L
  BUN: 16.4 mg/dL
  CRE: 0.4 mg/dL
  Ca: 10.8 mg/dL
  Cl: 103.8 meq/L
  DBIL: 0.08 mg/dL
  GLC: 183.8 mg/dL
  IP: 8 mg/dL
  K: 3.9 meq/L
  LDH: 192.6 IU/L
  Na: 140 meq/L
  PL: 139.6 mg/dL
  RALB: 3.5 g/dL
  TBIL: 0.1 mg/dL
  TC: 61.4 mg/dL
  TG: 69.6 mg/dL
  TP: 5.6 g/dL
  gamma-GTP: 1 IU/L
